The record followed here is patent US11696893B2, “Preparation comprising vonoprazan” (Takeda Pharmaceutical Company Limited, priority 2017, dated 2023).

The structures appear in SMILES notation.

Holding throughout (assay type): physicochemical
A short description of data set [1]: Confirmation of dissolution control mechanism-1 (dissolution test, paddle 100 rpm). As to conditions: water-soluble polymer coated particle 3 of Reference Example 2, FIG. 14. The protocol:
The water-soluble polymer coated particle 3 obtained in Reference Example 2 and containing 60 mg of compound A was subjected to a dissolution test using paddle at 100 rpm and in the same manner as in Experimental Example 1. The dissolution media was the Japanese Pharmacopoeia dissolution test 2nd fluid, the Japanese Pharmacopoeia dissolution test 2nd fluid added with 10% (W/W) sodium carbonate, the Japanese Pharmacopoeia dissolution test 2nd fluid added with 13% (W/W) succinic acid, or the Japanese Pharmacopoeia dissolution test 2nd fluid added with 0.6% (W/W) fumaric acid.

The nature of data set [2]: Dissolution amount of compound A in saturated organic acid. Particulars: room temperature, shaken 1 hr. As for the experimental part: Citric acid, succinic acid, fumaric acid or malic acid was dissolved and saturated in the Japanese Pharmacopoeia dissolution test 2nd fluid (JP2), and filtered. Successively, compound A (0.4 g) was added to a filtrate (10 mL) saturated with an organic acid and the mixture was shaken at room temperature for 1 hr. The solution after shaking was filtered, diluted 50-fold with the Japanese Pharmacopoeia dissolution test 2nd fluid, and the diluted solution was diluted 20-fold with the Japanese Pharmacopoeia dissolution test 2nd fluid. The solution obtained by diluting twice was subjected to HPLC measurement and the dissolution amount of compound A was measured.

Data set [3] is described as follows: Dissolution profile of compound A, fumaric acid, succinic acid (Rotating Basket 100 rpm). As to conditions: water-insoluble polymer coated particle of Example 1 or coagulation inhibiting substance coated particle of Reference Example 3, 60 mg compound A; FIG. 12-13. The protocol:
The water-insoluble polymer coated particle of Example 1 or the coagulation inhibiting substance coated particle of Reference Example 3, each of which contained 60 mg of compound A, was subjected to a dissolution test using Rotating Basket at 100 rpm and in the same manner as in Experimental Example 1. The dissolution amounts of fumaric acid or succinic acid as well as compound A were also measured. As for fumaric acid and succinic acid, the residual rate of each organic acid in the particles were inversely calculated from the dissolution rate, and the value of the maximum dissolution amount was normalized assuming 0% of the residual rate.

A short description of data set [4]: Influence of concentration of fumaric acid or monosodium fumarate on dissolution amount of compound A (common ion effect). Particulars: JP2 with various concentrations of fumaric acid or monosodium fumarate, room temperature, 1 hr; FIG. 11. As for the experimental part: Solutions containing various concentrations of fumaric acid or monosodium fumarate dissolved in the Japanese Pharmacopoeia dissolution test 2nd fluid were prepared. Then, 50 mg of compound A was measured and charged in a 10 mL plastic tube and each of the above-mentioned solution (5 mL) was added and the mixture was vigorously shaken at room temperature for 1 hr. The suspension after shaking was filtered, diluted 100-fold and subjected to HPLC measurement. The dissolution amount of compound A was measured.

With `CNCc1cc(-c2ccccc2F)n(S(=O)(=O)c2cccnc2)c1.O=C(O)/C=C/C(=O)O` [compound A, 1-[5-(2-Fluorophenyl)-1-(pyridin-3-ylsulfonyl)-1H-pyrrol-3-yl]-N-methylmethanamine monofumarate], the results for the “dissolution of compound A” value in data set [1] (JP2 added with 10% (W/W) sodium carbonate) and in data set [1] (JP2 added with 13% (W/W) succinic acid or 0.6% (W/W) fumaric acid) were “suppressed dissolution” and “did not show a dissolution suppressive action”, respectively. Moreover, the “concentration (dissolution amount of compound A)” value is 5.22 µg·mL in data set [2] (JP2, saturated organic acid: none); 26.30 µg·mL in data set [2] (JP2 saturated with citric acid); “low concentration” in data set [2] (JP2 saturated with fumaric acid, listed as Compound A, monofumarate); 0.67 µg·mL in data set [2] (JP2 saturated with fumaric acid, monofumarate); 26.64 µg·mL in data set [2] (JP2 saturated with malic acid). In data set [3], the “start of dissolution of compound A relative to organic acid” value was “started after dissolution of fumaric acid or succinic acid”. Further, in data set [4], the “dissolution amount of compound A” value is reported as “influenced by the concentration of fumaric acid or monosodium fumarate”.
